Assay results taken from paper PMC9019904, “AD Informer Set: Chemical tools to facilitate Alzheimer's disease drug discovery” (Alzheimer's & Dementia : Translational Research & Clinical …, 2022).
In brackets after ≈: the same amount, converted by molar mass. Like-named read-outs stand apart in the source and are kept apart here.

Key:
[1] = test system: HMC3 (human microglia) cell line; experiment: pHrodo-myelin phagocytosis/cell viability high content imaging assay: viability (cell count, nuclear area, nuclear intensity)
Procedure, shortened: (§1)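 Viability was read by high-content imaging as cell count per well and nuclear intensity per cell, in murine BV2 and human HMC3 microglial lines. Cells received a single 10 μM compound dose for 48 h, including 20 h with pHrodo-myelin. Duplicate means are expressed as % of untreated control.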

[2] = test system: BV2 (mouse microglia) cell line; experiment: as above
Procedure, shortened: as §1

[3] = Kinetic solubility in aqueous buffer pH 7.4 by total chemiluminescent nitrogen determination (Analiza); settings: aqueous buffer, pH 7.4, aqueous buffer, kinetic from dmso stock
[4] = test system: protein product expressed by the gene target; settings: cited from earlier work
[5] = test system: HMC3 (human microglia) cell line; experiment: pHrodo-myelin phagocytosis/cell viability high content imaging assay: phagocytosis signal; format: cell-based
Procedure, shortened: (§2)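 Cells receive pHrodo-myelin, then are imaged at high content approximately 22 hours later. Phagocytosis signal and viability are captured in the same run. Three measurements are extracted per well.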

[6] = test system: BV2 (mouse microglia) cell line; experiment: as above; format: cell-based
Procedure, shortened: as §2

In the case of `Nc1nc(Nc2ccc3c(c2)CC[C@@H](N2CCCC2)CC3)nn1-c1cc2c(nn1)-c1ccccc1CCC2` [Bemcentinib (BGB324)], the “Human microglial cytotoxicity at 10 μM (<70% control)” value ([1]; HMC3, 10 μM) is reported as “Y (The compound was found to be cytotoxic (cell count threshold: <70% control) when human immortalized microglial cells were dosed at 10 μM (Y: yes))”, the “Mouse microglial cytotoxicity at 10 μM (<70% control)” value ([2]; BV2, 10 μM) is reported as “Y (The compound was found to be cytotoxic (cell count threshold: <70% control) when murine immortalized microglial cells were dosed at 10 μM (Y: yes))” and the solubility kinetic [3] is reported as 82.9 µM (≈ 42 µg/mL). The “Reported on-target biochemical potency” value [4] was 14 nM, the “Inhibition of human microglial phagocytosis at 10 μM (<70% control)” value ([5]; HMC3, 10 μM) was “Y (The compound was found to inhibit phagocytosis (response threshold: <70% control) when human immortalized microglial cells were dosed at 10 μM (Y: yes))” and the “Inhibition of mouse microglial phagocytosis at 10 μM (<70% control)” value ([6]; BV2, 10 μM) was “Y (The compound was found to inhibit phagocytosis (response threshold: <70% control) when murine immortalized microglial cells were dosed at 10 μM (Y: yes))”.
With `CN(C)c1ccc2c(c1)Sc1cc(N(C)C)ccc1N2.CS(=O)(=O)O.CS(=O)(=O)O` [TRx0237 (LMTX) mesylate] the “Human microglial cytotoxicity at 10 μM (<70% control)” value ([1]; 10 μM, HMC3) was “Y (The compound was found to be cytotoxic (cell count threshold: <70% control) when human immortalized microglial cells were dosed at 10 μM (Y: yes))”, the “Mouse microglial cytotoxicity at 10 μM (<70% control)” value ([2]; 10 μM, BV2) was “Y (The compound was found to be cytotoxic (cell count threshold: <70% control) when murine immortalized microglial cells were dosed at 10 μM (Y: yes))” and the solubility kinetic [3] was 115 µM. The “Reported on-target biochemical potency” value ([4]; target gene MAPT, ref PubMed 26809554) was 160 nM and the “Inhibition of human microglial phagocytosis at 10 μM (<70% control)” value ([5]; 10 μM, HMC3) was “Y (The compound was found to inhibit phagocytosis (response threshold: <70% control) when human immortalized microglial cells were dosed at 10 μM (Y: yes))”.
In the case of `Cc1ccc(NC(=O)c2ccc(CN3CCN(C)CC3)cc2)cc1Nc1nc(-c2cccnc2)cs1` [Masitinib (AB1010)], the “Mouse microglial cytotoxicity at 10 μM (<70% control)” value ([2]; 10 μM, BV2) is given as “Y (The compound was found to be cytotoxic (cell count threshold: <70% control) when murine immortalized microglial cells were dosed at 10 μM (Y: yes))”, the solubility kinetic [3] is given as 93.9 µM (≈ 46.8 µg/mL) and the “Reported on-target biochemical potency” value ([4]; target KIT, ref PubMed PMC2746281) is given as 200 nM. The “Reported on-target biochemical potency” value ([4]; target LYN, ref PubMed PMC2746281) was 510 nM, the “Reported on-target biochemical potency” value ([4]; target PDGFRα, ref PubMed PMC2746281) was 540 nM and the “Reported on-target biochemical potency” value ([4]; target PDGFRβ, ref PubMed PMC2746281) was 800 nM. The “Inhibition of human microglial phagocytosis at 10 μM (<70% control)” value ([5]; 10 μM, HMC3) was “Y (The compound was found to inhibit phagocytosis (response threshold: <70% control) when human immortalized microglial cells were dosed at 10 μM (Y: yes))” and the “Inhibition of mouse microglial phagocytosis at 10 μM (<70% control)” value ([6]; 10 μM, BV2) was “Y (The compound was found to inhibit phagocytosis (response threshold: <70% control) when murine immortalized microglial cells were dosed at 10 μM (Y: yes))”.
In the case of `C[C@H](N/C(=N\c1cccc2ncccc12)NC#N)c1ccccc1` [A-804598], the solubility kinetic [3] is listed as 31.1 µM (≈ 9.81 µg/mL), the “Reported on-target biochemical potency” value ([4]; target P2X7, ref PubMed 18602931, 28716092, 28871219, 29934546) is listed as 10 nM and the “Inhibition of human microglial phagocytosis at 10 μM (<70% control)” value ([5]; 10 μM, HMC3) is listed as “Y (The compound was found to inhibit phagocytosis (response threshold: <70% control) when human immortalized microglial cells were dosed at 10 μM (Y: yes))”.
